# Square brackets hold non-standard residues; d marks the D form. Ends that are not written are not given here. pS = N[C@@H](COP(=O)(O)O)C(=O)O
# Columns and labels:
# [1] = mouse, in vivo
# Protocol: In this Example, to elucidate the mechanism of JP1 penetrating the skin and acting on the hair follicle, a 14-day AGA modeling was performed according to the model design strategy of Example 1 above. Thereafter, a 1% FITC-JP1 solution was applied to the dorsal depilated area of the mice in a light-avoidance environment. Five time points were set at 0.5, 1, 2, 4 and 8 h for observation. The fresh skin tissue was made into frozen sections, and the penetration pathway of JP1 in the skin tissue and the amount of aggregation in the hair follicles were observed under an inverted fluorescence microscope.
# 15 C57BL/6J male mice were dorsally depilated after two weeks of continuous TP injection. A 1% FITC-JP1 solution was applied locally to the depilated area of the mice on the 1st day after depilation, no light, in five groups of 0.5 h, 1 h, 2 h, 4 h and 8 h (n=3).
# The back skin was removed at the corresponding time points and fixed in 4% paraformaldehyde. After 48 h of fixation, the skin tissue was successively dehydrated in 20% and 30% sucrose solution for 2 days each. After gradient dehydration, sections (20 μm) were made using a frozen microtome. Zeiss inverted fluorescence microscope was used to photograph the fluorescent sections.
# [2] = tested on: p-c-Raf; assay: Immunoblotting of p-c-Raf in skin tissue; format: in vivo, mouse
# Protocol: (§1) 4.1) Protein extraction: 70 mg of skin tissue was placed in a 1.5 mL centrifuge tube, and 500 μL of tissue lysate RIPA containing protease inhibitor and phosphatase inhibitor was added. The tissue was placed on an ice box, pulverized by a tissue grinder, and then ultrasonically crushed to obtain a tissue suspension, which was then placed in a rotary windmill at 4° C. to be lysed for 2 h. The centrifuge was set at 12,000×g, 4° C., centrifuged for 15 min, and the supernatant was collected as the total protein.
# (§2) 5.1) Heating of protein samples: the total protein content of each tissue was 50 μg; calculate the volume of a corresponding protein sample, make up the volume with saline to 16 μL, then add 4 μL of 5×SDS sampling buffer, heat at 100° C. for 5 min, and then cool at room temperature and store at −20° C.
# (§3) 5.7) Primary antibody incubation: the cut protein bands were placed into the corresponding primary antibody and incubated at 4° C. on a shaker overnight, washed with TBST 3 times for 10 min/time.
# [3] = tested on: integrin β1; assay: Integrin β1 expression in skin tissue (qPCR, immunoblotting, immunofluorescence); format: in vivo, mouse
# Source text: In this example, the mRNA expression levels of RGD-targeting molecules in the skin tissues of three groups of mice, namely, the AGA model control group, the model group and the JP1-treated group, were further examined.
# To verify whether JP1 targeted integrin molecules are localized in hair follicles in the skin tissue, this example detected the expression levels, tissue localization, and distribution of integrin αv and integrin β1 in the skin tissue of the mouse model in Example 6 using immunofluorescence staining.
# as §1, §2
# 7.1) Dilute the specific gene amplification primers to 10 µM in ddH2O, prepare the qPCR reaction system according to the instructions in the kit and add them sequentially into a 384-well plate.
# 7.3) Relative mRNA expression levels of genes were calculated by the […] relative quantification method using GAPDH as an internal reference.
# 9.5) Primary antibody incubation: the tissue was circled by the histochemical pen, about 50 μL of primary antibody was added dropwise to the tissue, and incubated in a wet box overnight at 4° C., washed 3 times with PBS.
# [4] = tested on: SP1, Wnt10a, Wnt10b and β-catenin; assay: Immunoblotting of SP1 and downstream molecules in skin, Animal model III; format: in vivo, mouse; conditions: 1% JP1
# Protocol: as §1, §2, §3
# [5] = tested on: TP-induced AGA model mice; assay: TP-induced AGA model, Animal model III (specific inhibition of SP1 by MTA); format: in vivo, C57BL/6J male mice
# Source text: To verify that JP1 promotes AGA follicle regeneration through the activation of the Wnt/β-catenin signaling pathway via the MAPK/E2F1/SP1 signaling axis, the example constructed a mouse model of AGA with specific inhibition of SP1 (FIG. 15A). The specific experimental details are described according to “Animal model III” of “1. TP-induced AGA model” in “Experimental Methods”.
# To further confirm that JP1 promotes the growth of hair follicles on the back of AGA model mice through the SP1-regulated Wnt/β-catenin signaling pathway at the histomorphometric level, H&E staining was performed on the skin tissues of the model mice of Example 15 at different time points (days 4, 8, and 12 post-intervention).
# The mice used in this study were 5-week-old C57BL/6J male mice (18-20 g), which were purchased from Jiangsu Jicui Pharmachem Biotechnology Co. All the animals used in the experiments were housed in the SPF-level environment of the Medical Laboratory Animal Center of Nanjing Medical University, and the relevant animal experimental operations were approved by the Animal Ethics Committee of Nanjing Medical University. The control group was left untreated, and the other groups were injected with TP subcutaneously on their backs every day. Two weeks later, the hair on the backs of the mice was shaved with an electric razor, covering an area of 2 cm×4 cm, and then the residual hair was removed with a hair removal cream. The subcutaneous injections of TP on the shaved backs of the mice in the AGA model was continued until the end of the experimental period, and the administration of TP in each of the treatment groups was begun on the 1st day of the dehairing process.
# In addition to the normal control group (denoted as control) n=20, all mice injected subcutaneously with TP were randomly divided into the following groups (n=20): the model group (denoted as model), the 1% JP1 (skin-coated), and the 1% JP1+MTA group. […] MTA was administered at a dose of 0.3 mg/kg/d, qd, intraperitoneally, 100 μL/dose.
# Mice were weighed every two days during the experiment. Skin color was assessed against skin score charts. The mice were euthanized and treated at the end of the experiment, and skin tissues were taken from the dorsal decorticated area of the mice. Some of the tissues were fixed with 4% paraformaldehyde solution and then paraffin sections were made for H&E or immunofluorescence staining, etc., and some of the tissues were stored in the refrigerator at −80° C. for relevant molecular expression assays (qRT-PCR, Western Blot, IP, etc.).
# 8.1) Sampling and fixation: After the experiment, skin tissue was taken from the depilated area on the back of the mouse and placed in a 10 mL EP tube. 4% paraformaldehyde was added to the EP tube, and all tissues were immersed to denature and coagulate the proteins of the skin tissue. The original morphology and structure of the cells were maintained.
# 8.6) H&E staining: the sections pretreated in distilled water were put into aqueous hematoxylin solution for a few minutes for staining. The color was separated in acid water and ammonia for a few seconds each. After rinsing in running water for 1 h, the sections were placed in distilled water for a few moments. The sections were dehydrated in 70% and 90% alcohol for 10 min each, and stained in alcoholic eosin stain for 2-3 min.
# [6] = JP1 stability experiment in skin-coating solvent (HPLC); format: physicochemical; conditions: 14 days
# Protocol: This example further explored the stability of JP1 in the skin-coating solvent. In this example, the solvent group and JP1 group were designed, and the content and molecular weight of JP1 in the skin-coating solvent were detected using high performance liquid chromatography on days 1, 3, 7, and 14, respectively, after the solution was formulated for evaluation. The prepared solutions were placed in a refrigerator at 4° C. The details of the experiments are shown in “II. JP1 Stability Experiments” of “Experimental Methods” below.
# The stability of JP1 dissolved in a skin-coating solvent was tested at different time points. JP1 was prepared with the skin-coating solvent, and a solvent control group and a 10 mM JP1 group were set up. The prepared solution was stored in a refrigerator at 4° C. The five time points of 0, 1, 3, 7 and 14 days were detected by high performance liquid chromatography (HPLC), and the standard curve was plotted with the peak area as the vertical coordinate and the concentration of JP1 as the horizontal coordinate.
# [7] = 1% JP1 skin-coated, MTA 0.3 mg/kg/d intraperitoneally
substance,measurement,setting,value
"FPGSDRF-RGD (FPG[pS]DRFRGD) [JP1, amino acid S is phosphorylated; JWA peptide]",penetration into skin and follicle tissue,[1],able to penetrate into the skin and enter into the follicle tissue in a targeted manner
same,p-c-Raf protein level,[2],not significantly altered
same,"integrin β1 expression, immunofluorescence staining","[3]; each JP1 intervention group, localized in the site of hair follicles",elevated
same,integrin β1 protein level (TP-down-regulated),"[3]; skin tissue, immunoblotting, JP1 P<0.01",reversed
same,integrin β1 expression at the end of the model,"[3]; skin tissue, qPCR, P<0.01",returned to control levels
same,integrin β1 mRNA expression after JP1 intervention,"[3]; skin tissue, qPCR, decreased in TP model group, P<0.01",significantly elevated
same,"expression levels of key molecules (SP1, Wnt10a, Wnt10b, β-catenin), day 4",[4],did not change significantly
same,"protein expression levels of four molecules (SP1, Wnt10a, Wnt10b, β-catenin), day 8",[4],increased significantly
same,"skin color on the back, day 8",[5]; [7],turned gray
same,"skin color on the back, day 10",[5]; [7],changed significantly to black-gray
same,hair follicle morphology at day 8 vs 1% JP1+MTA group,"[5]; H&E longitudinal section, 1% JP1",hair follicles extended downward and the bulbous part of hairs expanded
same,diameter of the hair bulb,"[5]; H&E, day 12, 1% JP1 P<0.001",increased
same,thickness of the dermis,"[5]; H&E, day 12, 1% JP1 P<0.001",increased
same,total number of hair follicles vs model group and 1% JP1+MTA group,"[5]; skin transection, day 8 and day 12, P<0.001",significantly more
same,JP1 degradation in skin-coating solvent,"[6]; 10 mM JP1, 4° C.",no JP1 degradation was detected
same,peak area of the substance produced by degradation,"[6]; skin-coating solvent, 4° C.",less than 0.5 mAU
same,percentage of the main peak area,"[6]; skin-coating solvent, 4° C.",~100%
